Reference: paper PMC9663686, “Proline, hydroxyproline, and pyrrolidone carboxylic acid derivatives as highly efficient but reversible transdermal permeation enhancers” (Scientific Reports, 2022)

Experiments:
[1] = tested on: human skin; test: Theophylline permeation through human skin in Franz diffusion cells with co-applied enhancer; type: in vitro ADME; conditions: 1% enhancer co-applied with 5% TH in 60% PG; for CDERMIS, theophylline concentration in dermis / CEPIDERMIS, theophylline concentration in epidermis: after 48 h permeation, mean ± SEM; for ER, enhancement ratio of theophylline flux (fold increase in flux over control): human skin in vitro
Method: The prepared enhancers were applied at 1% in 60% aqueous propylene glycol (PG) to human skin in vitro; 60% PG was used as a negative control. PG was selected for its synergy with amphiphilic enhancers. Each model drug was co-applied with the enhancer at infinite dose.
Donor samples for reversibility and infrared studies contained 1% enhancer in 60% PG. All samples were thoroughly mixed, incubated at 32 °C for 24 h, and, if needed, carefully resuspended before applying on the skin. The effects of the studied enhancers on the solubility of model drugs were assessed as described previously.
The permeation-enhancing potencies of the prepared compounds were evaluated on human skin in Franz diffusion cells. Human skin was slowly thawed, cut into 2 × 2 cm pieces, fixed in Teflon holders with 1-cm^2 circular permeation areas, and mounted into Franz cells epidermal side up. The acceptor compartment (15.9 ± 0.1 ml) was filled with phosphate-buffered saline at pH 7.4 with 0.005% gentamicin (PBS) and stirred at 32 °C throughout the experiment. The skin integrity was checked by electrical impedance (any skin sample with the impedance < 10 kΩ was excluded). Then, 100 µl of a donor sample (infinite dose) was applied to the skin and covered with a glass slide. Acceptor phase samples (300 µl) were collected at predetermined time intervals for 48 h, to reach steady-state and were replaced by the same volume of fresh PBS. […] The drug concentrations were measured by HPLC (see supplementary data).
The flux of the model drug through the skin Jss (µg/cm^2/h) was calculated from the linear region of this plot. The enhancement ratio (ER) was calculated as the ratio of flux with and without an enhancer.
After the permeation experiment, the cells were dismounted, the skin was carefully washed with PBS, and the permeation area of the skin (1 cm^2) was punched off. After heating the skin fragments to 80 °C for 1 min, the epidermis (E) was peeled off the dermis (D), individually weighed and extracted by 1 and 2 ml, respectively, of an extraction solvent (identical to the mobile phase for the drug HPLC analysis, see supplementary data) for 24 h. The drug concentration was measured by HPLC (see supplementary data).

[2] = tested on: HaCaT spontaneously immortalized human keratinocytes; test: MTT cell viability assay, HaCaT; type: cell-based; conditions: 48-h incubation, mean ± SEM, read-out: IC50, HaCaT cells, MTT assay
Text: Next, the in vitro toxicities of the most promising enhancers Pro3 and Pro4, along with the parent Pro2, on spontaneously immortalized human keratinocytes (HaCaT) and Swiss albino mouse embryonic fibroblasts (3T3) were studied (Fig. 3). […] The cellular toxicities were further probed using the 3-(4,5-dimethylthiazol-2-yl)-2,5-diphenyltetrazolium bromide (MTT) uptake assay, based on the transformation of yellow MTT into purple formazan by mitochondrial reductases of living cells. The MTT assay also yielded toxicity values in tens of µM with trends to higher toxicity with a longer acyl chain length (thus also higher lipophilicity) of enhancers (Fig. 3).
Cell viability was determined via 3-(4,5-dimethylthiazol-2-yl)-2,5-diphenyltetrazolium bromide (MTT) and neutral red (NR) uptake assays after 48-h incubation with the enhancers (see Supplementary data for details).
Both cell lines were cultivated in Dulbecco’s modified Eagle’s medium (DMEM, Lonza, Basel, Switzerland) supplemented with 10% heat-inactivated fetal bovine serum (Merck, Darmstadt, Germany), 10 mM HEPES buffer (Merck, Darmstadt, Germany), and 1% penicillin/streptomycin solution (Lonza, Basel, Switzerland) in 75-cm^2 tissue culture flasks (TPP, Trasadingen, Switzerland) at 37°C in a humidified atmosphere of 5% CO2. Subconfluent cells were sub-cultured every 3-4 days.
For toxicity studies, the stock-solutions of studied compounds were prepared in dimethyl sulfoxide (DMSO). […]
After 48-h incubation with the studied enhancer, cell viability was determined via 3-(4,5-dimethylthiazol-2-yl)-2,5-diphenyltetrazolium bromide (MTT) uptake assay based on the transformation of yellow MTT into purple formazan by mitochondrial reductase activity of living cells. […] Afterward, the cell viability was assessed by optical density measurement using a Tecan Infinite 200 M plate reader (Tecan, Grödig, Austria) at λ = 570 nm.
The viability of each experimental group was expressed as the percentage of the untreated controls incubated under the same conditions (100%).

Row | Compound | CDERMIS, theophylline concentration in dermis [1] | CEPIDERMIS, theophylline concentration in epidermis [1] | ER, enhancement ratio of theophylline flux (fold increase in flux over control) [1] | IC50 [2]
1 | CCCCCCCCCCCCOC(=O)C1CCCN1C(C)=O (stereo not drawn) [Pro2, N-acetyl proline dodecyl ester] | 0.37 ± 0.02 µg/mg | 1.04 ± 0.11 µg/mg | 28 | 53.2 ± 3.19 µM
2 | CCCCCCCCCCCCOC(=O)C1CCCN1C(=O)CC (stereo not drawn) [Pro3] | 0.32 ± 0.03 µg/mg | 1.11 ± 0.17 µg/mg | 31 | 32.7 ± 2.48 µM
3 | CCCCCCCCCCCCOC(=O)C1CCCN1C(=O)CCC (stereo not drawn) [Pro4] | 0.25 ± 0.01 µg/mg | 0.83 ± 0.08 µg/mg | 25 | 33.2 ± 2.02 µM
